Experimental findings from patent EP0960338B1, “DIAGNOSTIC METHODS AND COMPOSITIONS BASED ON THE DISTRIBUTION OF RAD51” (Yale University, priority 1997, dated 1998) are described below.

Where “and” joins values, the source holds several entries; their conditions need not be identical. Equal values may be shown once.

In test [1] the test system is LNL8 fibroblasts. The test can be described thus: Immunofluorescent staining of Rad51 foci in nuclei and micronuclei. In kind it is cell-based, human. As for the experimental part:
(§1) Cell Culture. The sources of the cell lines were as follows. Rat TGR-1 cells, J. Sedivy. Brown University; mouse 3T3-Swiss cells, ATCC; human 293 kidney cells, ATCC; human teratoma cells, B. King, Yale University; human LNL8 fibroblasts, S. Meyn, Yale: human XPA and XPF fibroblasts, P Glazer, Yale.
(§2) Monolayer cultures were grown in D-MEM medium supplemented with 10% fetal bovine serum and antibiotics.
(§3) Immunofluorescent Staining.
(§4) Digital Imaging Microscopy.

The test system of test [2] is TGR-1 cells. Described as above. It is filed as cell-based, rat. As for the experimental part: as §1, §2, §3, §4
Test [3] has as its system TGR-1 cells.
The subject of test [4] is TGR-1 cells. The test can be described thus: Apoptosis by fluorescence in situ end labeling (FISEL). In kind it is cell-based, rat. Conditions: for Percentage of Apoptotic Cells: FISEL+.
Description: Fluorescence In Situ End Labeling (FISEL). FISEL detects cell death (apoptosis) in situ by quantitating DNA strand breaks in individual nuclei. It uses terminal transferase (TdT) to label the 3'-ends in fragmented genomic DNA with biotinylated nucleotide. 100 µl of reaction mix contain 1 µl (25 Units) TdT (Boehringer Mannheim), 20 µl 5xTdT buffer (supplied with the enyzme), 1 µl 0.5 mM biotin-II-dUTP, 3 µl 0.5 mM dTTP, and 75 µl ddH2O. Cytological preprations are incubated at 37°C for 1 hr with this reaction mix. Washing the slides for 3x5 min in PBS is sufficient to terminate the reaction. The incorporated biotin-dUTP is detected with rhodarnine-conjugated avidin.
Another more classical way for inducing apoptosis in vitro is the exposure of TGR-1 cells to the topoisomerase II inhibitor etoposide.
Where [5] appears, read: LNL8, 10^-5 M 5-aza-dC added 24 hrs before cell harvest.
Where [6] appears, read: TGR-1, 10^-5 M 5-aza-dC added 24 hrs before cell harvest.
The mark [7] stands for this setting: TGR-1, 2 hrs in medium containing etoposide.
[8] abbreviates: TGR-1, 5 hrs in medium containing etoposide.
The mark [9] stands for this setting: TGR-1, 12 hrs in medium containing etoposide.
Setting [10] is: TGR-1, 18 hrs in medium containing etoposide.
[11] abbreviates: TGR-1, 24 hrs in medium containing etoposide.
The mark [12] stands for this setting: TGR-1, 36 hrs in medium containing etoposide.

Turning to `Nc1ncn([C@H]2C[C@H](O)[C@@H](CO)O2)c(=O)n1` [5-aza-dC, 5-azadeoxycytidine], in test [1] (setting [5]), the “Percentage of Cells with Type I Foci in Micronuclei” value amounted to 1%, the “Percentage of Cells with Type I Foci in Nuclei” value was 3%, the “Percentage of Cells with Type II Foci in Micronuclei” value is listed as 5% and the “Percentage of Cells with Type II Foci in Nuceli” value is on record as 2%. In addition, the “Percentage of Cells without Foci” value in test [1] (setting [5]) is recorded as 89%. Also, in test [1] (human LNL8 fibroblast cultures, non-lethal doses of 5-aza-dC, range stated jointly with TGR-1), the “cells displaying MN with focally concentrated Rad51 protein” value is 5-10%. Also, the “cells displaying MN with focally concentrated Rad51 protein” value in test [2] (Rat TGR-1 cultures, non-lethal doses of 5-aza-dC, range stated jointly with LNL8) was 5-10%. Moreover, in test [2] (setting [6]), the “Percentage of Cells with Type I Foci in Micronuclei” value was determined as 4%, the “Percentage of Cells with Type I Foci in Nuclei” value turned out to be 5%, the “Percentage of Cells with Type II Foci in Micronuclei” value is 4% and the “Percentage of Cells with Type II Foci in Nuceli” value is listed as 1%. The “Percentage of Cells without Foci” value in test [2] (setting [6]) turned out to be 86%.
`CN[C@H]1CCc2cc(OC)c(OC)c(OC)c2-c2ccc(OC)c(=O)cc21` [Colcemid, colcemid]: in test [3], the “Percentage of Cells Showing Rad 51+/ FISEL+” value is 0% and 1% and 6% and 4%; the “Percentage of Cells Showing Rad51-/ FISEL-” value is 85% and 54% and 45% and 43%; the “induced MN containing very brightly fluorescing Rad51 foci” value was “over 30%”.
Consider `COc1cc([C@@H]2c3cc4c(cc3[C@@H](O[C@@H]3O[C@@H]5CO[C@@H](C)O[C@H]5[C@H](O)[C@H]3O)[C@H]3COC(=O)[C@H]23)OCO4)cc(OC)c1O` [etoposide], for which the “Percentage of Apoptotic Cells” value in test [4] (12 hrs in medium containing etoposide) was 17%; in test [4] (18 hrs in medium containing etoposide) it was 24%; in test [4] (24 hrs in medium containing etoposide), 33%; in test [4] (36 hrs in medium containing etoposide) it was 47%. Moreover, in test [4] (36 hrs after adding etoposide to the culture medium), the “cells showing genome fragmentation, stained FISEL-positively” value is on record as “half”. For the same molecule, the “Percentage of Cells with Type I Foci in Micronuclei” value in test [2] (setting [7]) is recorded as 1%; in test [2] (setting [8]) it was 2%; in test [2] (setting [9]), 2%; in test [2] (setting [10]), 8%; in test [2] (setting [11]) it was 2%; in test [2] (setting [12]) it was 5%. Further, the “Percentage of Cells with Type I Foci in Nuclei” value is 4% in test [2] (setting [7]); 3% in test [2] (setting [8]); 8% in test [2] (setting [9]); 3% in test [2] (setting [10]); 2% in test [2] (setting [11]); 2% in test [2] (setting [12]). The “Percentage of Cells with Type II Foci in Micronuclei” value in test [2] (setting [7]) is 2%; in test [2] (setting [8]), 2%; in test [2] (setting [9]) it was 2%; in test [2] (setting [10]) it was 9%; in test [2] (setting [11]) it was 8%; in test [2] (setting [12]) it was 9%. The “Percentage of Cells with Type II Foci in Nuclei” value in test [2] (setting [7]) is given as 1%; in test [2] (setting [8]), 1%; in test [2] (setting [9]), 1%; in test [2] (setting [10]), 1%; in test [2] (setting [11]) it was 6%; in test [2] (setting [12]) it was 1%. The “Percentage of Cells without Foci” value in test [2] (setting [7]) is reported as 92%; in test [2] (setting [8]) it was 92%; in test [2] (setting [9]) it was 87%; in test [2] (setting [10]), 79%; in test [2] (setting [11]), 82%; in test [2] (setting [12]), 83%.
